Data reported in US20220023419A1, “INHIBITING INFLAMMATION” (THE COUNCIL OF THE QUEENSLAND INSTITUTE OF MEDICAL RESEARCH, priority 2018, published 2022).

Tested on: EpCAM+ epithelial cells in intestinal organoids
Assay: Intestinal organoids from small intestine cultured with IFNγ, MHC class-II expression
Format: cell-based, mouse
Settings: organoids from B6.MHC class-II-GFP or B6.WT mice cultured with IFNγ
From the text: High levels of IFN-γ are secreted by both ILC1 and by conventional T cells in the small intestine. The mechanisms controlling MHC class-II expression by IEC, focusing on interferon (IFN) γ signalling were delineated, since this cytokine is known to potently induce MHC class-II expression. […] To understand the potential sources of IFNγ driving the expression of MHC class II, Rag^−/− common-γ-chain^−/− which lack innate lymphocyte populations, and Rag^−/− mice that lack only conventional TCR-rearranged T cells, were analyzed. […] After TBI-induced inflammation, conventional T cells were required for the upregulation of MHC class II in the ileum. […] In contrast, TBI induced IFN-γ secretion from conventional T cells (CD4^+ Tcon, CD8^+ Tcon) but not innate lymphocyte populations (not shown). […] Thus, constitutive MHC class-II expression on IEC in the ileum causes local T cell activation and IFNγ secretion, consistent with the induction of a local cytokine feed-forward cascade that amplifies MHC class-II expression on IEC. In order to confirm that the induction of MHC class-II expression by IEC was a direct effect of IFNγ, intestinal organoids were cultured from the small intestine of B6.MHC class-II-GFP or B6.WT mice with IFNγ.

## IFNγ: cytokine added to intestinal organoid cultures; known to potently induce MHC class-II expression
  MHC class-II expression by EpCAM+ epithelial cells in organoids: did so rapidly in the presence of IFNγ
